# pIC50: −log10 of the molar value. Where two headings read alike, the source gives them in different places.
# What was measured:
# human alpha2A receptors [1] = target: T1, human alpha2A receptors (Homo sapiens, UniProt P08913); settings: for pIC50: read-out: Alpha 2A Adrenaline IC50, antagonism, cells stimulated with adrenaline, CHO cells stably transfected with human alpha2A, cotransfected with Gα16, intracellular calcium; for Kb: read-out: Alpha 2A Adrenaline Kb, Kb calculated from IC50 with the Cheng-Prusoff equation, adrenaline as agonist, CHO cells, human alpha2A
# T1 sequence (P08913 1-465): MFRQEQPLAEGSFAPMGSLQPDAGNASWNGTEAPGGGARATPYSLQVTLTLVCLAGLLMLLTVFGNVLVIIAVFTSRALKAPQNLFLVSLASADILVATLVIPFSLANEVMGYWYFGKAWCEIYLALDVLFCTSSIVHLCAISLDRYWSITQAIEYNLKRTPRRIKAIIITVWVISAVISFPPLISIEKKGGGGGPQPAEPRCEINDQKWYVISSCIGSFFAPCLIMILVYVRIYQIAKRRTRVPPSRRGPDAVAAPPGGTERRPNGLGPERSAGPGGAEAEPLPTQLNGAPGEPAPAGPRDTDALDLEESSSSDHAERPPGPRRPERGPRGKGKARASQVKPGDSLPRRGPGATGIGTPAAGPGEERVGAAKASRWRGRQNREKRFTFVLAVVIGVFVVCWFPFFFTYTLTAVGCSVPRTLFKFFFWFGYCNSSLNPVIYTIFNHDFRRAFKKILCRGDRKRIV
# human alpha2C receptors = target: T2, human alpha2C receptors (Homo sapiens, UniProt P18825); assay: Determination of alpha2C antagonistic activity in vitro (FLIPR calcium assay); settings: for Kb: Kb calculated from IC50 with the Cheng-Prusoff equation, adrenaline as agonist, CHO cells, human alpha2C
# T2 sequence (P18825 1-462): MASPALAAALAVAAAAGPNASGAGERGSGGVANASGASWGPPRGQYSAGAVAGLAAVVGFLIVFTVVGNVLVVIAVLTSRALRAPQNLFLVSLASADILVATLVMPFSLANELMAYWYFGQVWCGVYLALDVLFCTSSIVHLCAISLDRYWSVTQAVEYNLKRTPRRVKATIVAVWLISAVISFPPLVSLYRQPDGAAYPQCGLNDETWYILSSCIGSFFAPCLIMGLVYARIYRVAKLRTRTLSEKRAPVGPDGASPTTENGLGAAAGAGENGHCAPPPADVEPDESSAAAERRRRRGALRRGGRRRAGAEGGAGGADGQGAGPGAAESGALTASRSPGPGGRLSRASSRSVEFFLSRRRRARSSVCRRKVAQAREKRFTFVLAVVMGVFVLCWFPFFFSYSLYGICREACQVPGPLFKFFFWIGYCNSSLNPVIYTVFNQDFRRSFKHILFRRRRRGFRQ
# human alpha2A receptors [2] = target: T1, human alpha2A receptors; assay: cell-based
# [3] = read-out: Alpha 2C Adrenaline IC50, antagonism, cells stimulated with adrenaline, CHO cells stably transfected with human alpha2C, cotransfected with Gα16, intracellular calcium
# [4] = read-out: Alpha 2C Adrenaline Kb
Molecule,pIC50 (human alpha2A receptors [1]),Kb (human alpha2A receptors [1]) [nM],pIC50 (human alpha2C receptors),Kb (human alpha2C receptors; Alpha 2C Adrenaline Kb) [nM],pIC50 (human alpha2A receptors [2]),Kb (human alpha2A receptors [2]) [nM],pIC50 (human alpha2C receptors; [3]),Kb (human alpha2C receptors; [4]) [nM]
"O=C1NCCCN1[C@H]1CCCN(C[C@H]2COc3ccccc3O2)C1 [compound 53, 1-((S)-1-(((S)-2,3-Dihydrobenzo[b][1,4]dioxin-2-yl)methyl)piperidin-3-yl)tetrahydropyrimidin-2(1H)-one]",< 5.00,> 449,–,–,–,–,8.98,0.105
"(R)-1-((S)-1-(((S)-2,3-Dihydrobenzo[b][1,4]dioxin-2-yl)methyl)piperidin-3-yl)-3-methyl-3-phenylpyrrolidine-2,5-dione and (S)-1-((S)-1-(((S)-2,3-dihydrobenzo[b][1,4]dioxin-2-yl)methyl)piperidin-3-yl)-3-methyl-3-phenylpyrrolidine-2,5-dione [example 36]",5.81,70,–,–,–,–,9.04,0.091
"O=C1NC(c2ccccc2)(c2ccccc2)CN1[C@H]1CCCN(C[C@H]2COc3ccccc3O2)C1 [example 2, 1-((S)-1-(((S)-2,3-Dihydrobenzo[b][1,4]dioxin-2-yl)methyl)piperidin-3-yl)-4,4-diphenylimidazolidin-2-one]",–,–,> 10.00,< 0.01,5.87,60,–,–
"O=C1c2ncncc2CN1[C@H]1CCCN(C[C@H]2COc3ccccc3O2)C1 [example 78, 6-((S)-1-(((S)-2,3-Dihydrobenzo[b][1,4]dioxin-2-yl)methyl)piperidin-3-yl)-5H-pyrrolo[3,4-d]pyrimidin-7(6H)-one]",–,–,6.59,25.8,< 5.00,> 449,–,–
"O=C1N(Cc2ccccc2)CCN1[C@H]1CCCN(C[C@H]2COc3ccccc3O2)C1 [example 50, 1-Benzyl-3-((S)-1-(((S)-2,3-dihydrobenzo[b][1,4]dioxin-2-yl)methyl)piperidin-3-yl)imidazolidin-2-one]",–,–,> 10.00,< 0.01,5.99,46,–,–

# More lines, main results first:
pIC50 (human alpha2A receptors [1]),Kb (human alpha2A receptors [1]) [nM],pIC50 (human alpha2C receptors),Kb (human alpha2C receptors; Alpha 2C Adrenaline Kb) [nM],pIC50 (human alpha2A receptors [2]),Kb (human alpha2A receptors [2]) [nM],Molecule,pIC50 (human alpha2C receptors; [3]),Kb (human alpha2C receptors; [4]) [nM]
< 5.00,> 449,9.82,0.02,–,–,"CC1CCN([C@H]2CCCN(C[C@H]3COc4ccccc4O3)C2)C1=O (single isomer, unassigned; diastereomer 2) [example 99]",–,–
–,–,9.59,0.028,5.18,296,"CC(C)N1C(=O)C(=O)N([C@H]2CCCN(C[C@H]3COc4ccccc4O3)C2)C1=O [example 130, 1-((S)-1-(((S)-2,3-Dihydrobenzo[b][1,4]dioxin-2-yl)methyl)-piperidin-3-yl)-3-isopropylimidazolidine-2,4,5-trione]",–,–
–,–,9.36,0.044,5.03,424,"O=C1C2CC2C(=O)N1[C@H]1CCCN(C[C@H]2COc3ccccc3O2)C1 (stereo partly drawn) [example 95, 3-((S)-1-(((S)-2,3-Dihydrobenzo[b][1,4]dioxin-2-yl)methyl)piperidin-3-yl)-3-azabicyclo[3.1.0]hexane-2,4-dione]",–,–
–,–,> 10.00,< 0.01,< 5.00,> 449,"Fc1ccc2c(c1)ncn2[C@H]1CCCN(C[C@H]2COc3ccccc3O2)C1 [example 87, 1-((S)-1-(((S)-2,3-Dihydrobenzo[b][1,4]dioxin-2-yl)methyl)piperidin-3-yl)-5-fluoro-1H-benzo[d]imidazole]",–,–
–,–,> 10.00,< 0.01,5.21,276,"COCc1nc2ccccc2n1[C@H]1CCCN(C[C@H]2COc3ccccc3O2)C1 [example 151, 1-((S)-1-(((S)-2,3-Dihydrobenzo[b][1,4]dioxin-2-yl)methyl)piperidin-3-yl)-2-(methoxymethyl)-1H-benzo[d]imidazole]",–,–
–,–,10.00,0.01,< 5.00,> 449,"O=C1CN(C2CCCC2)C(=O)N1[C@H]1CCCN(C[C@H]2COc3ccccc3O2)C1 [example 106, 1-Cyclopentyl-3-((S)-1-(((S)-2,3-dihydrobenzo[b][1,4]dioxin-2-yl)methyl)piperidin-3-yl)imidazolidine-2,4-dione]",–,–
–,–,> 10.00,< 0.01,< 5.00,> 449,"O=c1[nH]c2cc(F)ccc2n1[C@H]1CCCN(C[C@H]2COc3ccccc3O2)C1 [example 88, 1-((S)-1-(((S)-2,3-Dihydrobenzo[b][1,4]dioxin-2-yl)methyl)piperidin-3-yl)-5-fluoro-1H-benzo[d]imidazol-2(3H)-one]",–,–
